Laboratory results: US20080280983A1, “METHODS OF TREATING RETT SYNDROME” (CeNeRx BioPharma, priority 2007, published 2008)
Like-named read-outs stand apart in the source and are kept apart here.

Tests used:
[1] = test system: pentetrazol-induced convulsions; assay: Pentetrazol-induced convulsions in rats; assay type: in vivo, rat; conditions: for animals manifesting convulsions: 30 minutes before pentetrazol 80 mg/kg i.p.
Protocol: The method proposed by Goodman L. S. et al. (J. Pharmacol. Test Ther. 108:168; 1958) was used. […] After 30 minutes, pentylene tetrazol (80 mg/kg i.p.) was administered. The number of animals from each group who manifested at least one convulsion during the 30 minutes after injection was counted. The differences between treatments were statistically analyzed using the chi-square/Fisher exact test.

[2] = test system: bicucullin-induced convulsions; assay: Bicucullin-induced convulsions in rats; assay type: in vivo, rat; conditions: for protection against convulsions: percent compared with controls; for animals showing convulsions: 1 hour before bicuculline 4.5 mg/kg i.p., FIG. 4
Protocol: The method described by Curtis D. R. et al. (Brain Res. 34:301; 1971), herein incorporated by reference in its entirety, was used in modified form.
One hour later, bicuculline was administered by intraperitoneal route at a dose of 4.5 mg/kg dissolved in 10 ml/kg NSS. The number of animals manifesting any type of convulsion was then counted. The protection conferred by the treatments was then calculated as percent compared with the controls. The statistical significance of the differences was analyzed using the Yates chi-square test.

[3] = test system: electroshock-induced convulsions; assay: Electroshock-induced convulsions in rats; assay type: in vivo, rat; conditions: 30 minutes before shock
Protocol: Male rats were studied using the method described by E. Chojnacka-Wojcik (Pol. J. Pharmacol. Pharm., 35:511-15, 1983), herein incorporated by reference in its entirety.
At 30 minutes after dosing, the animals were given a non-lethal electric shock (50 Hz, 50 mA, impulse train duration 0.2 s via corneal electrodes wetted in normal saline). […] The frequency of tonic and clonic convulsions among the treatment groups was analyzed using the Yates chi-square test .

[4] = test system: strychnine-induced mortality; conditions: for type of antagonism of strychnine from slope of dose/mortality line: 100 mg/Kg i.p. pretreatment
Protocol: Strychnine causes muscular convulsions and eventual death through asphyxia or sheer exhaustion in mammals.
Strychnine was administered i.p., dissolved in normal saline at a constant volume of 10 ml/kg. […] The number of deaths was recorded, starting 15 minutes after administration. Using data on deaths at each dose, the LD50, the 95% confidence intervals, and the line slope S were calculated.

mouse [5] = conditions: cited from earlier work
rats [6] = assay: Open field behavior test; assay type: in vivo, rat
Excerpt: The open-field behavior test relies on the observation that rats exposed to a novel open environment display behaviors (exploratory ambulation, rearing, and dropping fecal boluses) that are thought to be naturally defensive and anticipatory of potential threats in the environment. Pharmacologic interventions that attenuate these behaviors may have utility in modifying pathologic fear or stress responses in a clinical context.

mouse [7] = conditions: intravenous route; cited from earlier work
CRH = CRH concentration in hypothalamus and cerebral cortex, foot-shock stress; assay type: in vivo, rat
Excerpt: As mentioned above, stress is known to be associated with release of CRH from the hypothalamus and activation of the HPA axis. This is paralleled by changes in the CRH content of different brain regions and alterations in the expression of messenger RNA (mRNA) for CRH.

rats [8] = assay: Water maze test; assay type: in vivo, rat; conditions: 100 mg/Kg
Protocol: The water maze test is designed to test the effect of drugs on learning and performance in a task that is performed under a stressful condition. After several trials under control conditions, rats learn to exit the water maze with greater speed and with fewer errors. Performance in this test can be improved by drugs that either reduce stress and/or enhance learning (e.g. muscarinic agonists). On the contrary, drugs that impair learning (e.g. scopolamine) can worsen performance. […] This indicates improved learning and retention.

aged mice = assay: Taut thread test; assay type: in vivo, mouse
Protocol: In this test, aged mice are required to traverse a thread stretched between two points. Performance is measured by the time taken to reach the end and the number of resting positions adopted during the test.

GABA receptors = conditions: cited from earlier work
mice = assay: Rota-rod test; assay type: in vivo, mouse; conditions: 100 mg/Kg, versus untreated mice, FIG. 8A
Excerpt: Motor performance can be tested by measuring the length of time an animal can remain on a slowly rotating cylinder, as in the rota-rod test.

CRH mRNA = conditions: sustained treatment, hypothalamus and cerebral cortex of rats; cited from earlier work
[9] = test system: isoniazide-induced convulsions; assay: Isoniazide-induced convulsions in rats; assay type: in vivo, rat; conditions: 1 hour prior to isoniazide 100 mg/kg i.p.
Protocol: The method of Reilly R. H. et al. (JAMA 152(14):1317; 1953), herein incorporated by reference in its entirety, was used in modified form. […] Both the ED50 and ED84 were calculated. In the second part of the test, the ED84 was administered at different times (0.5-1.0-1.5-2.0-3.0 hours) prior to isoniazide administration for the purpose of determining the duration of action and the curve of kinetic activity. Female rats fasted for 17 hours were used for the test.

rat = conditions: in vivo, ip; cited from earlier work

SMILES: NCCCC(=O)O [GABA]
- anticonvulsant effect ([1]; 50 or 100 mg/kg i.p. (either dose), pentetrazol 80 mg/kg i.p.): no anticonvulsant effect
- protection against convulsions ([2]; high dose 200 mg/kg orally): 20%
- protection against convulsions ([2]; low dose 100 mg/kg orally): 10%

SMILES: CCC1(c2ccccc2)C(=O)NC(=O)NC1=O [luminal sodium]
- tonic and clonic convulsions in response to electric shock ([3]; luminal sodium 10 mg/Kg i.p.): completely blocked
- animals manifesting convulsions ([1]; 10 mg/kg i.p.): None
- protection against convulsions ([2]; 20 mg/kg orally): 100%

SMILES: Cc1ccccc1OCC(O)CO (stereo not drawn) [mephenesine]
- type of antagonism of strychnine from slope of dose/mortality line ([4]; mice): competitive antagonism
- effect on LD50 of strychnine ([4]; mouse, in vivo): raised the LD50 of strychnine

SMILES: CC(C)(C)C(=O)NCCCC(=O)O [pivagabine, 4-[(2,2-dimethyl-1-oxopropyl)amino]butanoic acid]
- anti-depressive and anxiolytic activity (mouse [5]): a certain anti-depressive and anxiolytic activity
- number of rearing movements (rats [6]; 50 and 100 mg/Kg i.p., FIG. 6B): significantly reduced
- ambulation, number of sectors explored per unit time (rats [6]; FIG. 6A): significant decrease
- defecation, number of fecal boluses produced (rats [6]; FIG. 6C): significant decrease
- LD50 (mouse [7]): 1750 mg/kg
- number of tonic convulsions in response to electric shock ([3]; 100 or 200 mg/Kg i.p., FIG. 1): significantly reduced
- animals manifesting convulsions ([1]; 100 mg/kg i.p., p<0.01, FIG. 3): 30%
- effect on CRH concentration in the cerebral cortex (CRH; pivagabine alone (no foot shock), cerebral cortex): no effect
- reduction of CRH concentration in the hypothalamus (CRH; pivagabine alone (no foot shock), hypothalamus): 52%
- effects of foot-shock stress on CRH concentration (CRH; subchronic treatment, hypothalamus and cerebral cortex, FIGS. 12A and 12B): prevented the effects of foot-shock stress
- performance in later sessions (rats [8]; days 4 and 5): tended to be superior to that of controls
- time to exit and number of errors made (rats [8]; rats): performed as well as the control group
- number of resting positions adopted (aged mice; FIG. 9B): significantly less
- time taken to traverse the thread (aged mice; versus control mice, FIG. 9A): significantly faster
- binding to GABA receptors (GABA receptors): does not appear to bind to GABA receptors
- time remaining on the rotating cylinder (mice): significantly longer
- abundance of CRH mRNA (CRH mRNA): increases the abundance of CRH mRNA
- protection against seizures ([9]; highest dose (oral doses 25-50-100-200 mg/Kg), FIG. 5): 90%
- anticonvulsive effect, dose-effect relationship ([9]; oral 25-50-100-200 mg/Kg): dose-related increase
- dose up to which no toxic effects were observed (rat): 1000 mg/kg
- animals showing convulsions ([2]; 100 mg/kg orally): 4/10
- animals showing convulsions ([2]; 200 mg/kg orally): 1/10
- protection against convulsions ([2]; high dose 200 mg/kg orally): 90%
- effect on LD50 of strychnine ([4]; 100 mg/Kg i.p. 30 minutes prior to strychnine i.p., mice, FIG. 2): raised the LD50 of strychnine
- type of antagonism of strychnine from slope of dose/mortality line ([4]; mice): nonspecific antagonism
